Experimental data reported in patent US20150018403A1, “FLUORENE-AMIDE COMPOUNDS AND PHARMACEUTICAL USE THEREOF” (JAPAN TOBACCO INC., priority 2013, published 2015).

Columns and labels:
human PDHK2 (hPDHK2) = target: T1, human PDHK2 (hPDHK2) (Homo sapiens, UniProt Q15119); test: Inhibitory action of PDHK2 activity in vitro (residual PDH activity after kinase reaction); format: biochemical; conditions: PDH/hPDHK2 complex, 45 min kinase reaction at room temperature; read-out: hPDHK2 IC50
T1 construct: made in house; host or cells: Escherichia coli BL21(DE3), pET17b vector
Method: The inhibitory action of PDHK activity was assessed indirectly by measuring the residual PDH activity after kinase reaction in the presence of a test compound.
In the case of human PDHK2 (hPDHK2, Genbank Accession No. BC040478.1), modified hPDHK2 cDNA wherein FLAG-Tag sequence was added to the N terminus of hPDHK2 cDNA clone (pReceiver-M01/PDK2-GeneCopoeia) was prepared by PCR and cloned into a vector (pET17b-Novagen). The recombinant construct was transformed into Escherichia coli (DH5α-TOYOBO). The recombinant clones were identified, and plasmid DNA was isolated and subjected to the DNA sequence analysis. One clone which had the expected nucleic acid sequence was selected for expression work.
For expression of hPDHK2 activity, Escherichia coli strain BL21(DE3) cells (Novagen) were transformed with the pET17b vector containing modified hPDHK2 cDNA. The Escherichia coli were grown to an optical density 0.6 ([…]) at 30° C. Protein expression was induced by the addition of 500 μmol/L isopropyl-β-thiogalactopyranoside. The Escherichia coli were cultured at 30° C. for 5 hr and harvested by centrifugation. Resuspension of the Escherichia coli paste was disrupted by a microfluidizer. FLAG-Tagged protein was purified using FLAG affinity gel. The gel was washed with 20 mmol/L HEPES-NaOH, 500 mmol/L sodium chloride, 1% ethylene glycol, and 0.1% Pluronic F-68 (pH 8.0), and the binding protein was eluted with 20 mmol/L HEPES-NaOH, 100 μg/mL FLAG peptide, 500 mmol/L sodium chloride, 1% ethylene glycol, and 0.1% Pluronic F-68 (pH 8.0). The eluted fractions containing FLAG-Tagged protein were pooled, dialyzed against 20 mmol/L HEPES-NaOH, 150 mmol/L sodium chloride, 0.5 mmol/L EDTA, 1% ethylene glycol, and 0.1% Pluronic F-68 (pH 8.0), and preserved at −80° C.
0.05 U/mL PDH and 0.8 μg/mL hPDHK2 were mixed in a buffer (50 mmol/L 3-morpholinopropanesulfonic acid (pH 7.0), 20 mmol/L dipotassium hydrogen phosphate, 60 mmol/L potassium chloride, 2 mmol/L magnesium chloride, 0.4 mmol/L EDTA, and 0.2% Pluronic F-68, 2 mmol/L dithiothreitol), and the mixture was incubated at 4° C. overnight to obtain a PDH/hPDHK2 complex. The test compounds were diluted with DMSO. […] DMSO (1.5 μL) was added to control wells instead of the test compound. […] The mixture was incubated at room temperature for 90 min, and the residual PDH activity was measured. The absorbance at 340 nm before and after PDH reaction was measured using a microplate reader to detect NADH produced by the PDH reaction. The hPDHK2 inhibition rate (%) of the test compound was calculated from the formula [{(PDH activity of test compound−PDH activity of control)/PDH activity of blank−PDH activity of control)}×100].

[1] = Metabolic stability test in human liver microsome; format: in vitro ADME; conditions: 37° C., 5 μM
Method: Human liver microsome (manufactured by Xenotech, H0620, final concentration (after dilution), 0.2 mg protein/mL) was suspended in 100 mM potassium phosphate buffer (pH 7.4, containing β-nicotinamide adenine dinucleotide phosphate: 1.3 mM, D-glucose-6-phosphate: 3.3 mM, magnesium chloride: 3.3 mM, glucose-6-phosphate dehydrogenase: 0.45 U/mL), and further mixed with a test compound dissolved in MeCN/DMSO (95/5) (final concentration 5 μM). The mixture was incubated at 37° C. for 10 min and 60 min, acetonitrile containing formic acid (final concentration 0.1%) was added, and the mixture was centrifuged. The test compound (unmodified) in the supernatant was measured by high performance liquid chromatography/mass spectrometry (LC/MS) (manufactured by Waters, LC: Acquity UPLC, MS:SQ Detector or TQ Detector). The residual ratio (%) was calculated from the obtained measurement value.

[2] = Metabolic stability test in rat liver microsome; format: in vitro ADME

| SMILES | IC50 (human PDHK2 (hPDHK2)) | stability in liver microsome (residual ratio %) ([1]; 10 min) | stability in liver microsome (residual ratio %) ([1]; 60 min) | stability in liver microsome (residual ratio %) ([2]; 10 min) | stability in liver microsome (residual ratio %) ([2]; 60 min) |
| --- | --- | --- | --- | --- | --- |
| Cn1cc(-c2cc(OCC(C)(C)O)cc3c2-c2ccccc2[C@]3(O)C(F)(F)F)cn1 [compound (B), (9R)-2-(2-Hydroxy-2-methylpropoxy)-4-(1-methyl-1H-pyrazol-4-yl)-9-(trifluoromethyl)-9H-fluoren-9-ol, reference compound] | 7.4 nM | 98.0% | 88.2% | 101.1% | 92.1% |
| C[C@H](O)COc1cc(-c2cnn(C(C)(C)C(N)=O)c2)c2c(c1)[C@@](O)(C(F)(F)F)c1ccccc1-2 [compound (2), 2-(4-{(9R)-9-hydroxy-2-[(2S)-2-hydroxypropoxy]-9-(trifluoromethyl)-9H-fluoren-4-yl}-1H-pyrazol-1-yl)-2-methylpropanamide] | 4.9 nM | 98.9% | 97.2% | 98.3% | 98.5% |
